We go through four compounds from patent US20230285387A1, “COMBINATION OF MORPHINAN COMPOUNDS AND ANTI[…] THE TREATMENT OF PS[…], NEUROLOGICAL DISEASES, I[…] CHRONIC PAIN AND BRAIN INJURY” (Concert Pharmaceuticals, Inc., priority 2008, published 2023).

The structures appear in SMILES notation. Where a name gives a salt, the structure may show the parent alone.

The target in one data set is T1, Human CYP2D6 SUPERSOMES (Homo sapiens, UniProt P10635).
T1 construct: purchased GenTest (Woburn, Mass., USA)
Description: Metabolic stability in CYP2D6 SUPERSOMES
The following applies: 1 μM test compound, 2 mM NADPH, 0.1 M potassium phosphate buffer pH 7.4, 37° C., 0-30 minutes, parent remaining by LC-MS/MS. Type of data set: in vitro ADME. Here is the method: (§1) Human CYP2D6 SUPERSOMES™ were purchased from GenTest (Woburn, Mass., USA). […] The 7.5 mM stock solutions were diluted to 50 μM in acetonitrile (ACN). The […] CYP2D6 supersomes were diluted to 62.5 μmol/mL in 0.1 M potassium phosphate buffer, pH 7.4, containing 3 mM MgCl2. The diluted SUPERSOMES™ were added to wells of a 96-well deep-well polypropylene plate in triplicate. 10 μL of the 50 μM test compound was added to the supersomes and the mixture was pre-warmed for 10 minutes. Reactions were initiated by addition of pre-warmed NADPH solution. The final reaction volume was 0.5 mL and contained 50 μmol/mL CYP2D6 SUPERSOMES™, 1 μM test compound, and 2 mM NADPH in 0.1 M potassium phosphate buffer, pH 7.4, and 3 mM MgCl2. The reaction mixtures were incubated at 37° C. and 50 μL aliquots were removed at 0, 5, 10, 20, and 30 minutes and added to shallow-well 96-well plates which contained 50 μL of ice-cold ACN with internal standard to stop the reactions. The plates were stored at 4° C. for 20 minutes after which 100 μL of water was added to the wells of the plate before centrifugation to pellet precipitated proteins. Supernatants were transferred to another 96-well plate and analyzed for amounts of parent remaining by LC-MS/MS using an Applied Bio-systems API 4000 mass spectrometer.
(§2) The in vitro half-life (t1/2) for each of the test compounds was calculated from the slopes of the linear regression of % parent remaining (ln) vs incubation time relationship: in vitro t1/2=0.693/k, where k=−[slope of linear regression of % parent remaining(ln) vs incubation time]. Data analysis was performed using Microsoft Excel Software.

Another data set addresses T2, CYP2D6 (Homo sapiens, UniProt P10635).
T2 construct: purchased GenTest (Woburn, Mass., USA)
Nature of the data set: Metabolic stability in CYP2D6 SUPERSOMES
Type of data set: in vitro ADME. The following applies: human, recombinant human CYP2D6 SUPERSOMES; 1 μM test compound, 2 mM NADPH, 0.1 M potassium phosphate buffer pH 7.4, 37° C., 0-30 minutes, parent remaining by LC-MS/MS; read-out: t1/2 ± SD (calculated in vitro half-life in SUPERSOMES). Here is the method: as §1, §2

T2 sequence (P10635 whole entry): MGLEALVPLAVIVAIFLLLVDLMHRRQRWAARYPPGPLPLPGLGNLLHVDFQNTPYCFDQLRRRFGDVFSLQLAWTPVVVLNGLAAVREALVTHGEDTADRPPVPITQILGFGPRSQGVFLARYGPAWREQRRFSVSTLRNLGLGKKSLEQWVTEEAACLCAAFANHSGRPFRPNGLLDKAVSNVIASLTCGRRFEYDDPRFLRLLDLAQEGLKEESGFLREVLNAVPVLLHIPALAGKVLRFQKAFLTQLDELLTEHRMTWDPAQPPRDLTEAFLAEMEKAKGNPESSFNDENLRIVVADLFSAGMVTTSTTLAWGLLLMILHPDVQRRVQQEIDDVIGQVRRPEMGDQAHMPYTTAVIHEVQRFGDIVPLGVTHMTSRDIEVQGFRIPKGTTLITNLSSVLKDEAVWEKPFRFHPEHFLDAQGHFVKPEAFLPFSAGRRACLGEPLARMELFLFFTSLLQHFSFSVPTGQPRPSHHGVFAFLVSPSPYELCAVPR
T1 sequence (P10635 whole entry): as above

In the case of `[2H]C([2H])([2H])N1CC[C@@]23CCCC[C@@H]2[C@@H]1Cc1ccc(OC([2H])(C([2H])([2H])[2H])C([2H])([2H])[2H])cc13` [Compound 102, (+)-3-(Isopropoxy-d7)-17-(methyl-d3)-(9α,13α,14α)-morphinan], the “t1/2 ± SD (calculated in vitro half-life in SUPERSOMES)” value on Human CYP2D6 SUPERSOMES is reported as 39.0 ± 1.9 min.
With `[2H]C([2H])([2H])C([2H])([2H])Oc1ccc2c(c1)[C@]13CCCC[C@@H]1C(C2)N(C)CC3` (single isomer, unassigned; (+)) [Compound 104, (+)-3-(Ethoxy-d5)-17-methyl-(9α,13α,14α)-morphinan hydrochloride], at CYP2D6, the half-life at 1 μM is 49.1 ± 4.1 min.
On the same count and under the same terms, in the case of `[2H]C([2H])([2H])Oc1ccc2c(c1)[C@]13CCCC[C@@H]1[C@H](C2)N(C([2H])([2H])[2H])CC3` [Test Compound, (+)-3-d3-methoxy-17-d3-methyl-(9α,13α,14α)-morphinan] it was 5.6 ± 1.5 min; in that of `[2H]C([2H])([2H])C([2H])(Oc1ccc2c(c1)[C@]13CCCC[C@@H]1C(C2)N(C)CC3)C([2H])([2H])[2H]` (single isomer, unassigned; (+)) [Compound 106, (+)-3-(Isopropoxy-d7)-17-methyl-(9α,13α,14α)-morphinan], 36 ± 2.8 min.
